# In patent US20200360331A1, “COMPOSITIONS COMPRISING 15-HEPE AND/OR 15-HETrE AND METHODS OF TREATING OR PREVENTING CARDIOMETABOLIC DISEASE, METABOLIC SYNDROME, AND/OR RELATED DISEASES” (Afimmune Limited, priority 2019, published 2020):
# “Also recorded” adds a separate entry of the source.
# What was measured:
# [1] = test system: TβR-II (type II TGF-β receptor); experiment: Sucrose density gradient analysis in Mv1Lu cells, TβR-II; format: cell-based, mink; details: summary, free acid or ethyl ester form
# Description: Sucrose gradient ultracentrifugation and confocal microscopy were used to identify 15-HEPE induced microdomain translocation of TGF-β receptors by sucrose. Sucrose density gradient analysis of TGF-β receptors was conducted in the plasma membranes of Mv1Lu cells (mink lung epithelial cell) treated with 100 μM of 15-HEPE and an equal volume of DMSO (dimethyl sulfoxide) at 37° C. for 0, 1, 4, and 24 hours, and the cell lysates from these treated cells were subjected to sucrose density gradient ultracentrifugation. The sucrose gradient fractions were then analyzed by Western blot analysis using anti-TβR-I (type I TGF-β receptor), anti-TβR-II (type II TGF-β receptor), anti-TβR-III (type III TGF-β receptor, betaglycan), anti-EGFR (epidermal growth factor receptor), and anti-caveolin-1 antibodies. The lipid raft/caveolae, and non-lipid raft microdomain localization of TβR-I, TβR-II, TβR-III, EGFR and caveolin-1 in the plasma membrane of untreated cells or cells treated with 15-HEPE were assessed to determine the effects of 15-HEPE on the membrane microdomain localization of the TGF-β receptors.
# A 15-HEPE sucrose density gradient analysis of TGF-β receptors was conducted in the plasma membranes of mink lung epithelial cell (Mv1 Lu) cells treated with 100 μM of 15-HEPE and an equal volume of dimethyl sulfoxide (DMSO) at 37° C. for 0, 1, 4, and 24 hours, and the cell lysates from these treated cells were subjected to sucrose density gradient ultracentrifugation. The sucrose gradient fractions were then analyzed by Western blot analysis using anti-TβR-I (type I TGF-β receptor—FIG. 18C), anti-TβR-II (type II TGF-β receptor—FIG. 18D), anti-TβR-III (type III TGF-β receptor, betaglycan—FIG. 18E), anti-EGFR (epidermal growth factor receptor—FIG. 18F), and anti-caveolin-1 antibodies (FIG. 18G). Fractions 4 to 5 contained lipid rafts/caveolae whereas fractions 7-10 were non-lipid raft fractions. […] Stars (★) indicate 15-HEPE increased abundance of TβR-I (24 hours) in the fraction in comparison with that of the control and shorter treatment durations (FIG. 18C). […] The triangles (▾) indicate translocation and decreased abundance of TβR-II in the fraction in comparison with control cells (FIG. 18D).
# [2] = test system: TGF-β-stimulated intracellular signaling (SMAD2/3 phosphorylation); experiment: TGF-β-stimulated SMAD2/3 phosphorylation in LX2 liver stellate cells; format: cell-based, human; details: 0 μM to 100 μM for 24 hours, then 30 min TGF-β stimulation
# [3] = test system: TGF-β induced epithelial mesenchymal transition (EMT) protein production; experiment: TGF-β induced EMT protein production in HepG2 cells; format: cell-based, human; details: increasing doses for 1 hour, then 200 pM TGF-β for 48 hours
# Description: The effects of 15-HEPE on TGF-β-induced signaling and cellular responses were determined. To test the effect of 15-HEPE on TGF-β-induced signaling, the activities of 15-HEPE to regulate TGF-β-stimulated Smad2 phosphorylation and nuclear translocation, both of which are key signaling events leading to TGF-β-induced cellular responses, were tested. One important biological activity of TGF-β is transcriptional activation of genes responsible for epithelial-mesenchymal transition (EMT), which is a crucial event in wound healing, tissue fibrosis, and cancer progression. The effect of 15-HEPE on TGFβ-induced epithelial mesenchymal transition related proteins (such as fibronectin, PAI-1, and N-cadherin etc.) expression in HepG2 and […] cells were assessed. HepG2 cells (human hepatoma cell line) were treated in increasing doses of 15-HEPE stage II in DMEM containing 0.1% of FBS for 1 hour and continually stimulated with or without 200 picomolar (pM) of TGF-β for 48 hours.
# HepG2 cells (human hepatoma cell line) were treated in increasing doses of 15-HEPE stage II in DMEM containing 0.1% of FBS for 1 hour and continually stimulated with or without 200 picomolar (pM) of TGF-β for 48 hours. The two panels shown in FIG. 18A are two separate experiments run under the same experimental conditions.
# UUO mice [4] = experiment: UUO study: kidney hydroxyproline content; format: in vivo, C57BL/6 mice
# Description: (§1) UUO Surgery: On day 0 of the study, UUO surgery was performed on mice under pentobarbital sodium anesthesia. The mouse's hair was first shaved and then abdomen cut open to exteriorize the mouse's left ureter. The ureter was ligated 4-0 nylon sutures at two points. The mouse's peritoneum and skin were then closed with sutures, and the mouse transferred to a clean cage until recovered from the anesthesia. Sham operated mice had their left ureter exposed but not ligated.
# Measurement of Kidney Biochemistry: To quantify kidney hydroxyproline content, frozen left kidney samples were processed by an alkaline-acid hydrolysis method as follows: kidney samples were dissolved in 2 normal (N) sodium hydroxide (NaOH) at 65° C. and autoclaved at 121° C. for 20 minutes. The lysed samples (400 μL) were acid-hydrolyzed with 400 μL of 6N hydrochloride acid (HCl) at 121° C. for 20 minutes, and neutralized with 400 μL of 4N NaOH containing 10 mg/mL of activated carbon. An AC buffer (e.g., 2.2M acetic acid/0.48M citric acid, 400 μL) was added to the samples, followed by centrifugation to collect the supernatant. A standard curve of hydroxyproline was constructed with serial dilutions of trans-4-hydroxy-L-proline (Sigma-Aldrich, USA) starting at 16 μg/mL. The prepared samples and standards (e.g., each 400 μL) were mixed with 400 μL chloramine T solution (Wako Pure Chemical Industries, Japan) and incubated for 25 minutes at room temperature. The samples were then mixed with Ehrlich's solution (e.g., 400 μL) and heated at 65° C. for 20 minutes to develop the color. After samples were cooled on ice and centrifuged to remove precipitates, the optical density of each supernatant was measured at 560 nanometers (nm). The concentrations of hydroxyproline were calculated from the hydroxyproline standard curve. Protein concentrations of kidney samples were determined using a bicinchoninic (BCA) protein assay kit (Thermo Fisher Scientific, USA) and used to normalize the calculated hydroxyproline values. Kidney hydroxyproline contents were expressed as microgram (μg) per mg protein.
# [5] = UUO study: body weight, kidney weight, general condition; format: in vivo; details: UUO mice
# Description: as §1, with “ligated. […]” for “ligated.”
# Animals: Seven-week-old female C57BL/6 mice (i.e., animals) were obtained from Japan SLC, Inc. (Japan) and were housed and fed with a normal diet (CE-2; CLEA Japan, Japan) under controlled conditions. The animals were maintained in a specific-pathogen free (SPF) facility under controlled conditions of temperature (e.g., 23±2° C.), humidity (e.g., 45±10%), lighting (e.g., 12-hour artificial light and dark cycles; light from 8:00 to 20:00) and air exchange. A high pressure was maintained in the experimental room to prevent contamination of the facility. The animals were housed in TPX cages (CLEA Japan) with a maximum of 4 mice per cage. Sterilized Paper-Clean (Japan SLC) was used for bedding and replaced once a week. Sterilized solid normal diet was provided ad libitum, being placed in a metal lid on the top of the cage. Pure water was also provided ad libitum from a water bottle equipped with a rubber stopper and a sipper tube. Water bottles were replaced once a week, cleaned, and sterilized in an autoclave and reused. Mice were identified by ear punch and each cage was labeled with a specific identification code.
# Animal Monitoring and Sacrifice: The viability, clinical signs and behavior for the mice were monitored daily. Individual body weight was measured daily before treatment during the treatment period. […] The animals were sacrificed by exsanguination through direct cardiac puncture under isoflurane anesthesia (Pfizer Inc.) at Day 14.
# UUO mice [6] = experiment: UUO study: Sirius red staining of kidney sections, fibrosis area; format: in vivo, C57BL/6 mice; details: for Sirius red-positive area: kidney
# Description: as §1
# Histopathological analysis: To visualize collagen deposition, kidney sections were stained using picro-Sirius red solution (Waldeck, Germany). For quantification of interstitial fibrosis area, bright field images in the corticomedullary region were captured using a digital camera (e.g., DFC295; Leica Microsystems, Germany) at 200-fold magnification, and the positive areas in 5 fields/section were measured using ImageJ software (National Institute of Health, USA).
# [7] = 50 mg/kg PO QD Day 0-13, Day 14
# [8] = 250 mg/kg PO QD Day 0-13, Day 14
Structure (SMILES),translocation and degradation of type II TGF-β receptors [1],TGF-β-stimulated intracellular signaling (SMAD2/3 phosphorylation) [2],TGF-β induced EMT (pro-fibrotic) protein production [3],kidney hydroxyproline contents compared with the Vehicle group (UUO mice [4]; 5 mg/kg),"Kidney hydroxyproline (UUO mice [4]; 5 mg/kg PO QD Day 0-13, Day 14) [μg/mg total protein]",kidney hydroxyproline contents compared with the Vehicle group (UUO mice [4]; 50 mg/kg),Kidney hydroxyproline (UUO mice [4]; [7]) [μg/mg total protein],kidney hydroxyproline contents compared with the Vehicle group (UUO mice [4]; 250 mg/kg),Kidney hydroxyproline (UUO mice [4]; [8]) [μg/mg total protein],"Body Weight ([5]; 5 mg/kg PO QD Day 0-13, Day 14) [g]","Body Weight [5, 7] [g]","Body Weight [5, 8] [g]","fibrosis area compared with the Vehicle group (UUO mice [6]; 5 mg/kg, Mann-Whitney U test (p<0.1))","fibrosis area compared with the Vehicle group (UUO mice [6]; 50 mg/kg, Bonferroni Multiple Comparison)","fibrosis area compared with the Vehicle group (UUO mice [6]; 50 mg/kg, Mann-Whitney U test (p<0.1))","fibrosis area compared with the Vehicle group (UUO mice [6]; 250 mg/kg, Mann-Whitney U test (p<0.1))","Sirius red-positive area (UUO mice [6]; 5 mg/kg PO QD Day 0-13, Day 14) [%]",Sirius red-positive area (UUO mice [6]; [7]) [%],Sirius red-positive area (UUO mice [6]; [8]) [%]
CCC=CCC(O)C=CC=CCC=CCC=CCCCC(=O)OCC (stereo not shown) [15-HEPE EE],induced translocation and degradation of type II TGF-β receptors,inhibited TGF-β induced intracellular signaling (SMAD2/3),blocked TGF-β induced pro-fibrotic protein production,,,,,,,,,,,,,,,,
"CCCCCC(O)/C=C/C=C\C/C=C\CCCCCCC(=O)O (stereo not shown) [DS109, 15-hydroxy-eicosa-8Z,11Z,13E-trienoic acid]",,,,significant decreases,9.94 ± 2.02,no significant difference,13.94 ± 6.44,significant decreases,8.30 ± 1.04,19.1 ± 0.9,18.6 ± 0.6,18.6 ± 0.7,tended to decrease; also recorded: reduction trend,tended to decrease,tended to decrease; also recorded: reduction trend,tended to decrease; also recorded: reduction trend,4.23 ± 1.90,3.58 ± 1.04,4.71 ± 0.96
